Results from patent publication US20050037926A1, “Pesticide preparations containing copolymers” (priority 2001, published 2005).

Legend:
Type in all cases: in vivo
Settings in all cases: 600 g copolymer where named, 300 l/ha, 21 days at 20° C.
[1] = tested on: Sesbania exaltata (SEBEX); assay: Greenhouse herbicidal action of glyphosate test formulations
Procedure: (§1) Test formulations were prepared with in each case 200 g, 300 g and 500 g of glyphosate and in each case 600 g of the copolymers I to V in 300 l of water. The data by weight refer to 100% active ingredient and 100% adjuvant. An amount of the formulation corresponding to the ratio 300 l/ha was applied in a greenhouse to the plant species Abutilon theophrasti (ABUTH), Sesbania exaltata (SEBEX), Pharbitis purpurea (PHBPU), Galium aparine (GALAP), Amaranthus retroflexus (AMARE) and Echinochloa crus-galli (ECHCG), and, after 21 days at 20° C., the plant growth was assessed according to a % scale.
(§2) 0% means no effect and 100% means complete destruction of the types of plant.

[2] = tested on: Abutilon theophrasti (ABUTH); assay: as above
Procedure: as §1, §2

[3] = tested on: Amaranthus retroflexus (AMARE); assay: as above
Procedure: as §1, §2

[4] = tested on: Galium aparine (GALAP); assay: as above
Procedure: as §1, §2

[5] = tested on: Echinochloa crus-galli (ECHCG); assay: as above
Procedure: as §1, §2

[6] = tested on: Pharbitis purpurea (PHBPU); assay: as above
Procedure: as §1, §2

[7] = tested on: SEBEX, AMARE, GALAP, ABUTH, ECHCG, PHBPU; assay: Greenhouse herbicidal action, total over the six plant species
Procedure: as §1, §2

O=C(O)CNCP(=O)(O)O [Glyphosate, N-phosphonomethylglycine]
herbicidal action SEBEX (plant growth assessed on % scale) ([1]; glyphosate 200 g/ha, 0% no effect, 100% complete destruction): 10%
herbicidal action SEBEX (plant growth assessed on % scale) ([1]; glyphosate 300 g/ha): 15%
herbicidal action SEBEX (plant growth assessed on % scale) ([1]; glyphosate 500 g/ha): 30%
herbicidal action ABUTH (plant growth assessed on % scale) ([2]; glyphosate 200 g/ha): 0%
herbicidal action ABUTH (plant growth assessed on % scale) ([2]; glyphosate 300 g/ha): 10%
herbicidal action ABUTH (plant growth assessed on % scale) ([2]; glyphosate 500 g/ha): 15%
herbicidal action AMARE (plant growth assessed on % scale) ([3]; glyphosate 200 g/ha): 20%
herbicidal action AMARE (plant growth assessed on % scale) ([3]; glyphosate 300 g/ha): 45%
herbicidal action AMARE (plant growth assessed on % scale) ([3]; glyphosate 500 g/ha): 65%
herbicidal action GALAP (plant growth assessed on % scale) ([4]; glyphosate 200 g/ha): 5%
herbicidal action GALAP (plant growth assessed on % scale) ([4]; glyphosate 300 g/ha): 20%
herbicidal action GALAP (plant growth assessed on % scale) ([4]; glyphosate 500 g/ha): 40%
herbicidal action ECHCG (plant growth assessed on % scale) ([5]; glyphosate 200 g/ha): 15%
herbicidal action ECHCG (plant growth assessed on % scale) ([5]; glyphosate 300 g/ha): 20%
herbicidal action ECHCG (plant growth assessed on % scale) ([5]; glyphosate 500 g/ha): 40%
herbicidal action PHBPU (plant growth assessed on % scale) ([6]; glyphosate 200 g/ha): 10%
herbicidal action PHBPU (plant growth assessed on % scale) ([6]; glyphosate 300 g/ha): 20%
herbicidal action PHBPU (plant growth assessed on % scale) ([6]; glyphosate 500 g/ha): 40%
herbicidal action Total ([7]; glyphosate 200 g/ha): 10%
herbicidal action Total ([7]; glyphosate 300 g/ha): 22%
herbicidal action Total ([7]; glyphosate 500 g/ha): 38%
